The source of these data is PubChem BioAssay (NCI).

SMILES strings stand for the structures.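 Exposure lasted 48 hours, with cells grown in 96-well plates and compounds tested at five concentrations. The concentration for 50% growth inhibition is given as GI50. The concentration for full growth arrest is given as TGI.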 Bounds are passed on as bounds.

Holding throughout (assay): DTP human tumour cell line panel, 48 h
Assay [1] has as its system CAKI-1 renal.
Assay [2] deals with SW-620 colon.
Assay [3] deals with SK-MEL-2 melanoma.
Assay [4] concerns OVCAR-5 ovarian.
Assay [5] deals with BT-549 breast.
For assay [6], the system named is NCI-H522 lung.

Consider `CNNC(=N\S(=O)(=O)c1cc(C(=O)Nc2ccc(Cl)cc2)c(Cl)cc1SCc1ccccc1)/N=C/c1ccc([N+](=O)[O-])s1`, for which the GI50 in assay [1] was above 100 µM; in assay [2] it was above 20.9 µM; in assay [3], above 100 µM; in assay [4], above 100 µM; in assay [5], above 100 µM; in assay [6], above 100 µM. Besides, the TGI in assay [1], in assay [2], in assay [3], in assay [4], in assay [5] and in assay [6] was above 100 µM throughout.

For the molecule `c1ccc(-c2nnc(Nc3ccc4c(c3)OCCO4)o2)c(NCc2ccncc2)c1`, the GI50 in assay [1] was 0.16 µM; in assay [2], 0.0255 µM; in assay [3], 0.16 µM; in assay [4], 0.0904 µM; in assay [5] it was 0.0589 µM; in assay [6], below 0.01 µM. Moreover, the TGI in assay [1] was above 100 µM; in assay [2], above 100 µM; in assay [3], 22.3 µM; in assay [4], 79 µM; in assay [5] it was 7.01 µM; in assay [6] it was 0.86 µM.

On to `COc1cc2nc(N3CCCC3)nc(Nc3ccccc3)c2cc1OC`, for which the GI50 in assay [1] is 1.45 µM; in assay [2], 1.52 µM; in assay [3] it was 2.09 µM; in assay [4], 1.75 µM; in assay [5], 1.69 µM; in assay [6] it was 1.89 µM. The TGI in assay [1] is 2.8 µM; in assay [2] it was 3.17 µM; in assay [3], 4.16 µM; in assay [4] it was 3.14 µM; in assay [5] it was 3.25 µM; in assay [6], 3.96 µM.

Turning to `O=C(O)C[O][Sb][O]CC(=O)O`, the GI50 in assay [1], in assay [2], in assay [3], in assay [4], in assay [5] and in assay [6] was above 100 µM throughout. The TGI in assay [1], in assay [2], in assay [3], in assay [4], in assay [5] and in assay [6] was above 100 µM each time.

For the molecule `S=C=NCc1ccccc1`, the TGI in assay [1] is 4.26 µM; in assay [2], above 37.3 µM; in assay [3], above 59 µM; in assay [4], 29.8 µM; in assay [5], 5.12 µM; in assay [6], 4.45 µM.

Turning to `CC1=CC2=C(C(N)=O)C(=O)OC2(C)C(c2ccccc2)C1` (stereo not given), the TGI in assay [2], in assay [3], in assay [4], in assay [5] and in assay [6] was above 100 µM in each case.

Regarding `Nc1c(C(=O)c2cccc(C#CCN3CCOCC3)c2)cnn1-c1ccc(F)cc1`, the GI50 is above 16 µM in assay [1]; 9.28 µM in assay [2]; above 15.3 µM in assay [3]; above 25 µM in assay [4]; above 25 µM in assay [5]; above 10.9 µM in assay [6]. Moreover, the TGI is above 25 µM in assay [1]; above 25 µM in assay [2]; above 25 µM in assay [3]; above 25 µM in assay [4]; above 25 µM in assay [5]; above 23.6 µM in assay [6].

`CCN(CC)CCCOc1cc(O)c2c(=O)cc(-c3ccccc3)oc2c1`: the GI50 is 13.9 µM in assay [1]; 6.27 µM in assay [2]; 10.1 µM in assay [3]; 13 µM in assay [4]; 13.3 µM in assay [5]; 12.1 µM in assay [6]. Also, the TGI in assay [1] came to 38.8 µM; in assay [2], 19.3 µM; in assay [3], 27 µM; in assay [4] it was 25.7 µM; in assay [5], 26.6 µM; in assay [6] it was 26.7 µM.

Consider `C[C@H]1[C@H](C)CC[C@]2(C(=O)O)CC[C@]3(C)C(=CC[C@@H]4[C@@]5(C)CC[C@H](OC(=O)/C=C/c6ccc(O)cc6)C(C)(C)[C@@H]5CC[C@]43C)[C@H]12`, for which the GI50 in assay [1] was 3.13 µM; in assay [2] it was 9.2 µM; in assay [3] it was 13.5 µM; in assay [4], 5.27 µM; in assay [5] it was 5.11 µM; in assay [6] it was 9.45 µM. In addition, the TGI stood at 16.3 µM in assay [1]; 32.4 µM in assay [2]; 50.1 µM in assay [3]; 12.7 µM in assay [4]; 13.4 µM in assay [5]; 23 µM in assay [6].

`COc1ccc2[nH]c(=O)c(/C=C/C(=O)/C=C/c3ccc(O)c(OC)c3)cc2c1`: the GI50 is 1.71 µM in assay [1]; 1.13 µM in assay [2]; 2.47 µM in assay [3]; 1.88 µM in assay [4]; 1.37 µM in assay [5]; 1.74 µM in assay [6]. The TGI in assay [1] is 3.1 µM; in assay [2], 3.33 µM; in assay [3] it was 6.24 µM; in assay [4], 3.66 µM; in assay [5], 2.66 µM; in assay [6], 3.87 µM.

With `O=C(O)c1ccc(NCc2nc3cc4ccccc4cc3[nH]2)cc1`, the TGI is above 100 µM in assay [1]; above 100 µM in assay [2]; above 86.3 µM in assay [3]; above 100 µM in assay [4]; above 100 µM in assay [5]; above 100 µM in assay [6].

As to `CO/N=C(/COc1c(-c2ccccc2)oc2ccccc2c1=O)c1ccc(OC)cc1`, the GI50 is above 100 µM in assay [1]; above 100 µM in assay [2]; above 100 µM in assay [3]; above 100 µM in assay [4]; above 100 µM in assay [5]; 53.3 µM in assay [6]. For the same molecule, the TGI in assay [1], in assay [2], in assay [3], in assay [4], in assay [5] and in assay [6] was above 100 µM throughout.

One may read the GI50 as the concentration giving 50% growth inhibition. By TGI is commonly meant the concentration at which net growth stops. Low values mean greater sensitivity of the cells, high ones lower sensitivity of the cells.
